# Values joined by “and” are separate entries in the source; they are usually repeats but may differ in a detail not shown here. Equal values may be shown once.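 Compound exposure: 48 hours, 5 concentrations, 96-well plates. GI50 = concentration required for 50% inhibition of growth. Definition used: TGI = concentration required for complete inhibition of growth.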
# Columns and labels:
# Experiment in all cases: NCI anticancer screen, dose series, 48 h
# CAKI-1 renal = tested on: CAKI-1 renal
# CCRF-CEM leukemia = tested on: CCRF-CEM leukemia
# K-562 leukemia = tested on: K-562 leukemia
# MCF7 breast = tested on: MCF7 breast
# MDA-MB-231 breast = tested on: MDA-MB-231 breast
# NCI-H23 lung = tested on: NCI-H23 lung
# OVCAR-5 ovarian = tested on: OVCAR-5 ovarian
# SNB-19 CNS = tested on: SNB-19 CNS
# SNB-75 CNS = tested on: SNB-75 CNS
# OVCAR-4 ovarian = tested on: OVCAR-4 ovarian
Structure (SMILES),GI50 (CAKI-1 renal) [nM],TGI (CAKI-1 renal) [µM],GI50 (CCRF-CEM leukemia) [µM],TGI (CCRF-CEM leukemia) [µM],GI50 (K-562 leukemia) [nM],TGI (K-562 leukemia) [µM],TGI (MCF7 breast) [µM],GI50 (MDA-MB-231 breast),TGI (MDA-MB-231 breast) [µM],GI50 (NCI-H23 lung) [µM],GI50 (OVCAR-5 ovarian),TGI (OVCAR-5 ovarian) [µM],GI50 (SNB-19 CNS) [µM],TGI (SNB-19 CNS) [µM],GI50 (SNB-75 CNS) [nM],TGI (SNB-75 CNS) [µM],GI50 (MCF7 breast) [nM],TGI (NCI-H23 lung) [µM],GI50 (OVCAR-4 ovarian) [nM],TGI (OVCAR-4 ovarian) [µM]
CC[C@@]1(O)C(=O)OCc2c1cc1n(c2=O)Cc2cc3c(Cl)c4c(cc3nc2-1)OCO4,< 1,> 100,< 0.001,> 100,< 1,> 100,0.193,9.75 nM and 72.2 nM,> 100,< 0.001,0.985 µM and 0.193 µM,1.69,0.00125,0.26,2.88,> 100,,,,
COC(=O)c1c2c(c(C)[n+]([O-])c1C)C(=O)C=C(NCc1ccc(Br)cc1)C2=O,59.7,1.64,0.669,,47.2,> 100,1.07,300 nM,3.82,0.721,1.33 µM,2.83,1.23,2.48,1580,2.94,255,3.32,181,1.04
Cc1ccc(-c2c3c(N)nc(-c4ccncc4)nc3nc3c2c(C)nn3-c2ccccc2)cc1,> 37500,> 37.5,12.6,> 37.5,5000,> 37.5,24.4,4510 nM,13.4,21.6,> 37.5 µM,> 37.5,> 37.5,> 37.5,1640,15.2,3630,> 37.5,7440,33.3
Cc1ccc2c(n1)C(=O)C(Cl)=C(Nc1ccc(N3CCN(C)CC3)cc1)C2=O,1680,3.08,3.07,56.4,2720,8.92,5.17,1730 nM,3.19,1.79,1.82 µM,3.34,9.46,21.7,2110,8.53,2040,3.75,1500,2.87
O=S1CCN(Cc2ccc(-c3ccc4ncnc(Nc5ccc(OCc6ccccc6)c(F)c5)c4c3)o2)CC1,394,> 25,8.82,> 25,11900,> 25,> 16.5,7070 nM,> 23.7,11.3,13.9 µM,> 25,23.4,> 25,> 13100,> 25,6890,> 25,5750,> 25
Cc1ccc(C)c(NC(=O)/C(=N\N)C(c2cnc3ccc([N+](=O)[O-])cc3n2)[N+](=O)[O-])c1 (stereo not drawn),,> 100,,25.9,,> 100,> 100,,> 100,,,> 100,,,,> 100,,> 100,,62.9
Cc1ccn2c(-c3csc(Nc4cccc(O)c4)n3)c(C)nc2c1,1210,21.2,0.48,> 33,196,> 38.2,27.3,751 nM,11.6,1.01,9.29 µM,> 81.2,4.66,77.4,225,1.65,311,19.7,2430,53.2
O=C(O)CC1C(=O)OC2C3COC(=O)c4cc(O)c(O)c(O)c4-c4c(cc(O)c(O)c4O)C(=O)OC2C(OC(=O)c2cc(O)c(O)c4c2C1C(O)C(=O)O4)C(OC(=O)c1cc(O)c(O)c(O)c1)O3 (stereo not drawn),,42.9,,37,,> 100,40.6,,78.6,,,> 100,,> 100,,41.5,,> 100,,> 100
O=C(NCCSSCCNC(=O)/C(Cc1ccc(O)c(Br)c1)=N/O)/C(Cc1ccc(O)c(Br)c1)=N/O,,5.32,,> 18.3,,> 50,8.21,,8.26,,,13.5,,7.96,,> 13.6,,13.1,,18.3
Nc1nc2c(c(=O)[nH]1)N=C(COP(=O)(O)OP(=O)(O)O)CN2,,> 100,,> 100,,> 100,> 100,,> 100,,,> 100,,> 100,,> 100,,> 100,,
CC[C@@]1(OC(=O)C(N)CCC(=O)O)C(=O)OCc2c1cc1n(c2=O)Cc2cc3ccccc3nc2-1 (stereo partly drawn),,0.235,,0.247,,> 100,> 100,,5.82,,,8.09,,> 30.7,,1.35,,0.389,,> 20.8
COc1ccc(C2=NNC(c3cc(Cc4ccc(O)c(C5CC(c6ccc(OC)cc6)=NN5)c4)ccc3O)C2)cc1 (stereo not drawn),30200,> 100,3.85,> 100,7740,> 100,15,14300 nM,83.1,5.3,17.1 µM,88,6.89,> 100,4980,> 100,3300,> 100,5360,> 100
C/C(=C\CCc1ccsc1)CC/C=C(\C)CCCN1CCN(CCO)CC1,4260,16.4,2.28,6.51,1610,4.48,8.56,1600 nM,4.18,3.37,4.04 µM,17.6,4.4,21,2450,8.51,2850,13.4,2700,14.7
O=C1NC(=O)C(N2CCc3ccccc32)=C1c1ccc(Cl)cc1,> 25000,> 25,> 25,> 25,> 25000,> 25,> 25,> 25000 nM,> 25,> 11.4,> 25 µM,> 25,> 25,> 25,> 25000,> 25,> 25000,> 25,> 25000,> 25

# Source: PubChem BioAssay (NCI)
